# Results from article PMC4979471 (Cell Death Discovery, 2015).
# Read-outs that look alike come from different tables or passages of the source.
# Tests used:
# Test in all cases: Kinase selectivity, P33-radiolabeled assay
# Type in all cases: biochemical
# Conditions in all cases: 10 μM ATP
# GSK3b = target: T1, GSK3b (Homo sapiens, UniProt P49841)
# T1 construct: purchased Reaction Biology Corp
# Method in brief: (§1)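 ATP at 10 μM; test article at 10 μM, single point, two replicates. Output is activity as % of DMSO.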
# AKT2 = target: T2, AKT2 (Homo sapiens, UniProt P31751)
# T2 construct: purchased Reaction Biology Corp
# Method in brief: as §1
# PKCzeta = target: T3, PKCzeta (Homo sapiens, UniProt Q05513)
# T3 construct: purchased Reaction Biology Corp
# T3 sequence (Q05513 1-592): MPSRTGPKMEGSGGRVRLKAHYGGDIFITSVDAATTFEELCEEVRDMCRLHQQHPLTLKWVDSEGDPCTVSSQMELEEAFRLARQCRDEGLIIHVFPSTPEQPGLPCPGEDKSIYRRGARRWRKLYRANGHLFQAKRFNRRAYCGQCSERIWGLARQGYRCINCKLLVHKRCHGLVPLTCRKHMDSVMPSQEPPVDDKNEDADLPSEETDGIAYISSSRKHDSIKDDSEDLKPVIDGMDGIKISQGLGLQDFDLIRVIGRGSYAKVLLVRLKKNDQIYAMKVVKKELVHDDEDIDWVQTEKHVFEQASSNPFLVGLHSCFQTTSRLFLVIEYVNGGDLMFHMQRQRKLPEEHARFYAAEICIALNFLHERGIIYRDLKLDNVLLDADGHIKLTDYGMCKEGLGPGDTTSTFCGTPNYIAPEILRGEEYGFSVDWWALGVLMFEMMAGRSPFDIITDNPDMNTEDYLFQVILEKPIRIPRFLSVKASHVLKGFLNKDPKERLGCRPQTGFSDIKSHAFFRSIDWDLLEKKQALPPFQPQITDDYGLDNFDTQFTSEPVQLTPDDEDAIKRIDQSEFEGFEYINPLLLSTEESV
# Method in brief: as §1
# DMPK2 = target: T4, DMPK2 (Homo sapiens, UniProt Q6DT37)
# T4 construct: purchased Reaction Biology Corp
# Method in brief: as §1
# FGFR1 = target: T5, FGFR1 (Homo sapiens, UniProt P11362)
# T5 construct: purchased Reaction Biology Corp
# Method in brief: as §1
# EPHA1 = target: T6, EPHA1 (Homo sapiens, UniProt P21709)
# T6 construct: purchased Reaction Biology Corp
# T6 sequence (P21709 26-976): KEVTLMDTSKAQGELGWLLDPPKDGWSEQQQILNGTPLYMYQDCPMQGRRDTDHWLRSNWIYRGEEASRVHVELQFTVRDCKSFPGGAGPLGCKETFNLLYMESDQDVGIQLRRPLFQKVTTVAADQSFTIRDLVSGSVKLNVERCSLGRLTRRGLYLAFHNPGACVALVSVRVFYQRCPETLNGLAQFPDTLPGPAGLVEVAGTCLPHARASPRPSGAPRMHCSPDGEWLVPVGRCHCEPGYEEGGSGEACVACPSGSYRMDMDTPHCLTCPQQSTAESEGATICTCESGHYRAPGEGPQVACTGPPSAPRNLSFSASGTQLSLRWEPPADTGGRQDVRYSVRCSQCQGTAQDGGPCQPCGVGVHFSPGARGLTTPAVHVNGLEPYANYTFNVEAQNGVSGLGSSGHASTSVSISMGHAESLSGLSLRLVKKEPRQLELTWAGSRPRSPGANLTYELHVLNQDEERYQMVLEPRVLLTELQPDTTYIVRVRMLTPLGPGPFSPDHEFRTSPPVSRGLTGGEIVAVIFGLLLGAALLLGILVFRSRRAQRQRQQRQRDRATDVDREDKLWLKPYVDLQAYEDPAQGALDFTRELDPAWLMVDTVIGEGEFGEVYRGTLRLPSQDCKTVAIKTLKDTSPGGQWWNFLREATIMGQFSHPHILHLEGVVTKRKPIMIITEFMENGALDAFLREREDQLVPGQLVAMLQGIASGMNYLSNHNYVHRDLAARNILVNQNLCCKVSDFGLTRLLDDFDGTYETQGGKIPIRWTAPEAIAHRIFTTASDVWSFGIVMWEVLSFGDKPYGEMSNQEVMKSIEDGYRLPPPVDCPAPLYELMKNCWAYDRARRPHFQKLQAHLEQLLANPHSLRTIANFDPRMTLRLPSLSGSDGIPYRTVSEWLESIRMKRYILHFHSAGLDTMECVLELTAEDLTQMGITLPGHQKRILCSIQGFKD
# Method in brief: as §1
# CDC7/DBF4 = target: T7, CDC7/DBF4 (Homo sapiens, UniProt O00311)
# T7 construct: purchased Reaction Biology Corp
# Method in brief: as §1
# MARK2/PAR-1Ba = target: T8, MARK2/PAR-1Ba (Homo sapiens, UniProt Q7KZI7)
# T8 construct: purchased Reaction Biology Corp
# Method in brief: as §1
# PLK1 = target: T9, PLK1 (Homo sapiens, UniProt P53350)
# T9 construct: purchased Reaction Biology Corp
# Method in brief: as §1
# MNK2 = target: T10, MNK2 (Homo sapiens, UniProt Q9HBH9)
# T10 construct: purchased Reaction Biology Corp
# Method in brief: as §1
# [1] = read-out: % Enzyme Activity (relative to DMSO controls) AVG
# [2] = read-out: % Enzyme Activity (relative to DMSO controls) Data 1
# [3] = read-out: % Enzyme Activity (relative to DMSO controls) Data 2
# T7 sequence (O00311 whole entry): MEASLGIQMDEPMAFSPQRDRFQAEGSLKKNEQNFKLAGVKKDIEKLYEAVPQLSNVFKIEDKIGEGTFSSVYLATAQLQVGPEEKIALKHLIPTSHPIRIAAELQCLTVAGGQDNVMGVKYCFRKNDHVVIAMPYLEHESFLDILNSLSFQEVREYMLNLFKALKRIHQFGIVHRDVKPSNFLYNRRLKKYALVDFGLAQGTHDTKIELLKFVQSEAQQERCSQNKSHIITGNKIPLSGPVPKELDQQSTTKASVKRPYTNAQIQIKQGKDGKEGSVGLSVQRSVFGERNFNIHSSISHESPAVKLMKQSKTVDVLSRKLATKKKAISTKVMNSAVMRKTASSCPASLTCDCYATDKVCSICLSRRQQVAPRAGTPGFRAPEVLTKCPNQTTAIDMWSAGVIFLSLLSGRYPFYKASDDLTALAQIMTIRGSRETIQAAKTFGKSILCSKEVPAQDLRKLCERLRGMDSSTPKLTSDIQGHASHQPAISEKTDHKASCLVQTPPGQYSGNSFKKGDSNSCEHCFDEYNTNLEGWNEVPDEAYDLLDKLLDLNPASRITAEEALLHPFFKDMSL
# T7 sequence (Q9UBU7 whole entry partner): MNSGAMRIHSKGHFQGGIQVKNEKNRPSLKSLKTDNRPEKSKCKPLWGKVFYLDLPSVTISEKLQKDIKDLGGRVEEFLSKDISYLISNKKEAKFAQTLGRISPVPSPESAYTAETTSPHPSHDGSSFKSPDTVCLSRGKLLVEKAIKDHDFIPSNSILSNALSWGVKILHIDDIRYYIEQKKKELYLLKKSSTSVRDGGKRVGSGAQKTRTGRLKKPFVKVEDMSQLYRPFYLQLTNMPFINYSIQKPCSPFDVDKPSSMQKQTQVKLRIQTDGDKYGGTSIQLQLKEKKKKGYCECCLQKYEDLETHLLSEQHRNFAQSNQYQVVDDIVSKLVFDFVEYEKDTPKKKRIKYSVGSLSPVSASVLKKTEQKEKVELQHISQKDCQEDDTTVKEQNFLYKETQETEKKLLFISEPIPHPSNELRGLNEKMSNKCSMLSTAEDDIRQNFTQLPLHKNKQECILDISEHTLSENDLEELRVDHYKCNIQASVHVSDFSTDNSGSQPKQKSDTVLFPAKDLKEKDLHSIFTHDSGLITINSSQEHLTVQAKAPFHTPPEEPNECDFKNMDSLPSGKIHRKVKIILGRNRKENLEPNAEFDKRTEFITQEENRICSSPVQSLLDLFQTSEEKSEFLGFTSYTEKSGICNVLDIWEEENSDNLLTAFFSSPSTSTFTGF
# T1 sequence (P49841 whole entry): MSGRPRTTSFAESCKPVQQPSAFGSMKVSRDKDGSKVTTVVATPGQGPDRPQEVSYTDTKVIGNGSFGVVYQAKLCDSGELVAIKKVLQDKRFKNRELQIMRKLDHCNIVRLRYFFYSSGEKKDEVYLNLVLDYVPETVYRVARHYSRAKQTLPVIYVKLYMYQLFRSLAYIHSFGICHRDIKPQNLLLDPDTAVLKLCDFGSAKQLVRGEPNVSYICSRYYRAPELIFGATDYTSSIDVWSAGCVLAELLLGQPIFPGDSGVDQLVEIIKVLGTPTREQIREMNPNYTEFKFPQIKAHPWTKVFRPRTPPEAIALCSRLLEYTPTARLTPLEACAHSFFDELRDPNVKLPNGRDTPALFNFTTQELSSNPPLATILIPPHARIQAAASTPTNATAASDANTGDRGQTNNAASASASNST
# T10 sequence (Q9HBH9 whole entry): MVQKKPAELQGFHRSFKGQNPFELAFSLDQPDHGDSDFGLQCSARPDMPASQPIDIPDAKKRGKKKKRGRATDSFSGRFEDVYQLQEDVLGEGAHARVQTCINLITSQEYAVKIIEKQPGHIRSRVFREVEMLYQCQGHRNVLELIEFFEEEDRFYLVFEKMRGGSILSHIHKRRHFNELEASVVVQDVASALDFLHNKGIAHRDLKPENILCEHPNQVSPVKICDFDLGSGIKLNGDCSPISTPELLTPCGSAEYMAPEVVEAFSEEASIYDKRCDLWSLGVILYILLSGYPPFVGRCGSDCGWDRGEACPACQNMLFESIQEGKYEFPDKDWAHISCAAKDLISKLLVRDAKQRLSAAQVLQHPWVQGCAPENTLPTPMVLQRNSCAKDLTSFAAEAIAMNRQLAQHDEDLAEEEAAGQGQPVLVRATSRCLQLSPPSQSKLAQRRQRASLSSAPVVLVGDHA
# T5 sequence (P11362 22-822): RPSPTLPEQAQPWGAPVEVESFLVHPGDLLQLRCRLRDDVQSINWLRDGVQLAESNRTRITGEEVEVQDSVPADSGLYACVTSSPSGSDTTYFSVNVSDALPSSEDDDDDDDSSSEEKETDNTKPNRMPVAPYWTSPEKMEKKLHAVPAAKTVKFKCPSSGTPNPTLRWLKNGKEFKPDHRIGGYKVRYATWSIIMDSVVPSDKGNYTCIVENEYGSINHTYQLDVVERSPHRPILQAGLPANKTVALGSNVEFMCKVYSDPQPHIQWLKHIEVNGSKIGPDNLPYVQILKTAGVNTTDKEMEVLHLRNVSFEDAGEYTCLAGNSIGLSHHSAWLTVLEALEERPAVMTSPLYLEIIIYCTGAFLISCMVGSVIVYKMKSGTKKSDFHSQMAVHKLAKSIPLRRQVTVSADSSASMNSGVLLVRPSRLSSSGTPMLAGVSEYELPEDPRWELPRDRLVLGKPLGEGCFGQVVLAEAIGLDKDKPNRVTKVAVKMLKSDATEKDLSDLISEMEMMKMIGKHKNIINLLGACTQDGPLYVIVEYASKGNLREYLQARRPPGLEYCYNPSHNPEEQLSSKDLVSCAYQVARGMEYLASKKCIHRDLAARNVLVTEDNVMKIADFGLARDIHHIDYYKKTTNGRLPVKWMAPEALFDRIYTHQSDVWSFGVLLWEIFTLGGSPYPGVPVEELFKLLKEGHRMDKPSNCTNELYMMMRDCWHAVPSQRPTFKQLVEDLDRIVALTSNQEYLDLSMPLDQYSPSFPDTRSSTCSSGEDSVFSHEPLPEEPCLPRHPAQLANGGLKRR
# T8 sequence (Q7KZI7 whole entry): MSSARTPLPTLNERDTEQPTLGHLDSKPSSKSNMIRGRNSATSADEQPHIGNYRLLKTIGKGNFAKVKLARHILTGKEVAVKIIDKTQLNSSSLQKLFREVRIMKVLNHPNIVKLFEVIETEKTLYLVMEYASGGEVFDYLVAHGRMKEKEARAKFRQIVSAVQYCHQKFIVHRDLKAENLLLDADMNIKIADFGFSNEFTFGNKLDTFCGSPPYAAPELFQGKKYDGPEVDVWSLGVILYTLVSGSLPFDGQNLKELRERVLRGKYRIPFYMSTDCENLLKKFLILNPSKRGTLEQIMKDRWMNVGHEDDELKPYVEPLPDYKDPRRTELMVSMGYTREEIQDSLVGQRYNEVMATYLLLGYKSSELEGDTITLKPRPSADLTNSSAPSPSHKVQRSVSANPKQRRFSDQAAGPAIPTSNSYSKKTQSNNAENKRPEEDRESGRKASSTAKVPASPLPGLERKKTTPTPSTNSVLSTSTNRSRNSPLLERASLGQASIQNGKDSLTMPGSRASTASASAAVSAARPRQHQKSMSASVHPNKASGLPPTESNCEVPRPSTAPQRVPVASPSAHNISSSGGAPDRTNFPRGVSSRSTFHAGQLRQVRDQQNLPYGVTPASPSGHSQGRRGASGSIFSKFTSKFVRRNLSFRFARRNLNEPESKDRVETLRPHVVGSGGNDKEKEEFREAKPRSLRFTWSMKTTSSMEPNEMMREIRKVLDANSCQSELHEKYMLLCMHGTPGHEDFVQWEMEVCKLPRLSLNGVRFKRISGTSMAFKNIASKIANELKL
# T2 sequence (P31751 whole entry): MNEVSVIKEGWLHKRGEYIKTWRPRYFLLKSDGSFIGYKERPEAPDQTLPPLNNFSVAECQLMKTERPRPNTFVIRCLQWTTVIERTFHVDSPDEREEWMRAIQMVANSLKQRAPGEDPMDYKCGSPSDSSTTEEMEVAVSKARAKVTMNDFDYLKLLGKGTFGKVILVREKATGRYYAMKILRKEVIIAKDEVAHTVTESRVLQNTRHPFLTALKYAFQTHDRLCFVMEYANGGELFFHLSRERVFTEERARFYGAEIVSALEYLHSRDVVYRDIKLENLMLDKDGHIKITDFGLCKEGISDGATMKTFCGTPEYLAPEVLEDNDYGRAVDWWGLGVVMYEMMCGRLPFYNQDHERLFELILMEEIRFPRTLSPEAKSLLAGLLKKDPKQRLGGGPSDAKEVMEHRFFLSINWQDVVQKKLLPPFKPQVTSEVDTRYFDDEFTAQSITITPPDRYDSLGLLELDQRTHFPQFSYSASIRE
# T9 sequence (P53350 whole entry): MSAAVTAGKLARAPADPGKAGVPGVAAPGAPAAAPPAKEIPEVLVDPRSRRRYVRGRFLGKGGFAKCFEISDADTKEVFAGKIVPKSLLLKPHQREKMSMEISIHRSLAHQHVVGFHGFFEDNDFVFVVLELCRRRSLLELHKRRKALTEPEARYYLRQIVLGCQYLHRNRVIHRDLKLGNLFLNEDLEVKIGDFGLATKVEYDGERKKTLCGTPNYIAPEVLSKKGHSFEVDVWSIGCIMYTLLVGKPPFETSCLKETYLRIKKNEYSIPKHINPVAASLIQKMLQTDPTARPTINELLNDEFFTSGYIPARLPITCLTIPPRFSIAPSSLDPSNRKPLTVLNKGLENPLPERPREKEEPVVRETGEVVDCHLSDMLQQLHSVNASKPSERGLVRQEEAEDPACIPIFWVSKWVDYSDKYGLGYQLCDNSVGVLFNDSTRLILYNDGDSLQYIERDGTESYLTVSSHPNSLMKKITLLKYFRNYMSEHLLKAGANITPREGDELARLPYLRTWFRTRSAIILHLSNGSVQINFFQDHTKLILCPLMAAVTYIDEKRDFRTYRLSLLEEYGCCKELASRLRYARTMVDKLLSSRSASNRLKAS
compound,measurement,setting,value
CC(C)(C)C(=O)N1N=CC[C@H]1c1ccccc1 [GSK′963],remaining activity at 10 µM,GSK3b; [1],98.7%
same,remaining activity at 10 µM,GSK3b; [2],98.8%
same,remaining activity at 10 µM,GSK3b; [3],98.6%
same,remaining activity at 10 µM,AKT2; [1],92.8%
same,remaining activity at 10 µM,AKT2; [2],91.7%
same,remaining activity at 10 µM,AKT2; [3],93.9%
same,remaining activity at 10 µM,PKCzeta; [1],105%
same,remaining activity at 10 µM,PKCzeta; [2],105%
same,remaining activity at 10 µM,PKCzeta; [3],105%
same,remaining activity at 10 µM,DMPK2; [1],139%
same,remaining activity at 10 µM,DMPK2; [2],140%
same,remaining activity at 10 µM,DMPK2; [3],139%
same,remaining activity at 10 µM,FGFR1; [1],95%
same,remaining activity at 10 µM,FGFR1; [2],95.2%
same,remaining activity at 10 µM,FGFR1; [3],94.8%
same,remaining activity at 10 µM,EPHA1; [1],106%
same,remaining activity at 10 µM,EPHA1; [2],107%
same,remaining activity at 10 µM,EPHA1; [3],106%
same,remaining activity at 10 µM,CDC7/DBF4; [1],103%
same,remaining activity at 10 µM,CDC7/DBF4; [2],105%
same,remaining activity at 10 µM,CDC7/DBF4; [3],101%
same,remaining activity at 10 µM,MARK2/PAR-1Ba; [1],105%
same,remaining activity at 10 µM,MARK2/PAR-1Ba; [2],106%
same,remaining activity at 10 µM,MARK2/PAR-1Ba; [3],104%
same,remaining activity at 10 µM,PLK1; [1],103%
same,remaining activity at 10 µM,PLK1; [2],105%
same,remaining activity at 10 µM,PLK1; [3],101%
same,remaining activity at 10 µM,MNK2; [1],109%
same,remaining activity at 10 µM,MNK2; [2],107%
same,remaining activity at 10 µM,MNK2; [3],111%
